Data taken from ChEMBL document CHEMBL2321873, “1-(4-Phenylpiperazin-1-yl)-2-(1H-pyrazol-1-yl)ethanones as novel CCR1 antagonists” (Bioorg Med Chem Lett, 2013).
Active and inactive are the calls of the source. The rule behind the calls is not given here.

Assays:
[1] = target: C-X-C chemokine receptor type 6 (Homo sapiens) (UniProt O00574); assay: Antagonist activity at CXCR6 (unknown origin) assessed as inhibition of chemotaxis at 10 uM
[2] = target: T1, C-X-C chemokine receptor type 5 (Homo sapiens) (UniProt P32302); assay: Antagonist activity at CXCR5 (unknown origin) assessed as inhibition of chemotaxis at 10 uM
T1 sequence (whole entry): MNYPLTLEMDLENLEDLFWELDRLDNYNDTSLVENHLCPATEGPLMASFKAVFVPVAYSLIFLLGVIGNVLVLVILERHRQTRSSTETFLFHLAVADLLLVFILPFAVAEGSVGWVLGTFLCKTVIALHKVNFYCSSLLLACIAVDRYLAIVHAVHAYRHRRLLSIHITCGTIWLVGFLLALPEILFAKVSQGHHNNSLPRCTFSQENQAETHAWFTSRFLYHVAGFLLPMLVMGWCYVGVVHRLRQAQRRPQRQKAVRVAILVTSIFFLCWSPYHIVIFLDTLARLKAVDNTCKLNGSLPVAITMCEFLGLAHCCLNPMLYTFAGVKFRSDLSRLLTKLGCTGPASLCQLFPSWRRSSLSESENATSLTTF

[3] = target: T2, C-C chemokine receptor-like 2 (Homo sapiens) (UniProt O00421); assay: Antagonist activity at CCR11 (unknown origin) assessed as inhibition of chemotaxis at 10 uM
T2 sequence (whole entry): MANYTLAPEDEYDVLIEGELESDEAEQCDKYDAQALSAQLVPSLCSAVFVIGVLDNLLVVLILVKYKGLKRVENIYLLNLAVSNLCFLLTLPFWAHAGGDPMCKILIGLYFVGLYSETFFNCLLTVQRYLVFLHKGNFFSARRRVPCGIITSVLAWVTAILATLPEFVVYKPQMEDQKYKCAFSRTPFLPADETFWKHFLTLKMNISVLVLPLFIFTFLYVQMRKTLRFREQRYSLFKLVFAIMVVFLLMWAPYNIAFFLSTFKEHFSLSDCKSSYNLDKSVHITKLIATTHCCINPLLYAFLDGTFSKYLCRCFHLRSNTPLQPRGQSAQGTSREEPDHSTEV

[4] = target: T3, C-C chemokine receptor type 9 (Homo sapiens) (UniProt P51686); assay: Antagonist activity at CCR9 (unknown origin) assessed as inhibition of chemotaxis at 10 uM
T3 sequence (whole entry): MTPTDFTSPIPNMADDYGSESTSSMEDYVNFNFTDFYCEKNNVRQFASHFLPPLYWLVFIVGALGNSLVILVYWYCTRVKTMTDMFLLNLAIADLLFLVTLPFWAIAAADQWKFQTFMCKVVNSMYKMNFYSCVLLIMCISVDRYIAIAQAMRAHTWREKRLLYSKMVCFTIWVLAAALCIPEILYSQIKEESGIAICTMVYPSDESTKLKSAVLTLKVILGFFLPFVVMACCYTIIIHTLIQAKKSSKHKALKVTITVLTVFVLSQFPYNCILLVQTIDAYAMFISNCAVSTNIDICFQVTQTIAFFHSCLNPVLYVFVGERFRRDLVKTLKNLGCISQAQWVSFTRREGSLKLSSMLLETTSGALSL

[5] = target: T4, C-C chemokine receptor type 4 (Homo sapiens) (UniProt P51679); assay: Antagonist activity at CCR4 (unknown origin) assessed as inhibition of chemotaxis at 10 uM
T4 sequence (whole entry): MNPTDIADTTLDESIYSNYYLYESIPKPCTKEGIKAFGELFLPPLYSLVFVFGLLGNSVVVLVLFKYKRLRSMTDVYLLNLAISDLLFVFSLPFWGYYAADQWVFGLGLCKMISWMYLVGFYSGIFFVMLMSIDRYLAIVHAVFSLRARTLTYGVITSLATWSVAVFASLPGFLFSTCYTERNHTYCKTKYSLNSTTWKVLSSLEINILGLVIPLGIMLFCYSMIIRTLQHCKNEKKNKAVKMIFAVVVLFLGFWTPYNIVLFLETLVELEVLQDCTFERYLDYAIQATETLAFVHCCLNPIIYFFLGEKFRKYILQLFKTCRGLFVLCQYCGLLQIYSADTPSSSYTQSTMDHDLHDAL

[6] = target: T5, CX3C chemokine receptor 1 (Homo sapiens) (UniProt P49238); assay: Binding affinity to CX3CR1 (unknown origin) at 10 uM by radioligand displacement assay
T5 sequence (whole entry): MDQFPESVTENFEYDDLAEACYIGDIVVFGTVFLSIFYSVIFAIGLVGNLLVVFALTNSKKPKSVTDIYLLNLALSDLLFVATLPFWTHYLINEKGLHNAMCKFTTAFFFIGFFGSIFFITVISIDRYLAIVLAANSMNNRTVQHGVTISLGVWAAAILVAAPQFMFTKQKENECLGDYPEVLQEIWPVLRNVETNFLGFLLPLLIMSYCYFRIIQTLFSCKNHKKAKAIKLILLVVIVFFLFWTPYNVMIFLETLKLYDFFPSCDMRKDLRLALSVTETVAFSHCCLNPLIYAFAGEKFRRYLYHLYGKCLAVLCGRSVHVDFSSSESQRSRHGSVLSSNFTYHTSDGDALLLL

[7] = target: T6, C-X-C chemokine receptor type 3 (Homo sapiens) (UniProt P49682); assay: Binding affinity to CXCR3 (unknown origin) at 10 uM by radioligand displacement assay
T6 sequence (whole entry): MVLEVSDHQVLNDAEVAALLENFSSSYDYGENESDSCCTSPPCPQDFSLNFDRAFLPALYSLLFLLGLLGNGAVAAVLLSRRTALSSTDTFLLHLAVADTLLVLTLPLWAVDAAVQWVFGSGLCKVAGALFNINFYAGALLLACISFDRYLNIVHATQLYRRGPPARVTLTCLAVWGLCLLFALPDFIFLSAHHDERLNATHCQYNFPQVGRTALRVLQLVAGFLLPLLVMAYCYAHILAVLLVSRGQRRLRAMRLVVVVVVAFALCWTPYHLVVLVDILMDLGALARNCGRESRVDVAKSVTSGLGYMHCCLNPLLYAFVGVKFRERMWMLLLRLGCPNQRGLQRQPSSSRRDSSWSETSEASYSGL

[8] = target: T7, C-C chemokine receptor type 7 (Homo sapiens) (UniProt P32248); assay: Binding affinity to CCR7 (unknown origin) at 10 uM by radioligand displacement assay
T7 sequence (whole entry): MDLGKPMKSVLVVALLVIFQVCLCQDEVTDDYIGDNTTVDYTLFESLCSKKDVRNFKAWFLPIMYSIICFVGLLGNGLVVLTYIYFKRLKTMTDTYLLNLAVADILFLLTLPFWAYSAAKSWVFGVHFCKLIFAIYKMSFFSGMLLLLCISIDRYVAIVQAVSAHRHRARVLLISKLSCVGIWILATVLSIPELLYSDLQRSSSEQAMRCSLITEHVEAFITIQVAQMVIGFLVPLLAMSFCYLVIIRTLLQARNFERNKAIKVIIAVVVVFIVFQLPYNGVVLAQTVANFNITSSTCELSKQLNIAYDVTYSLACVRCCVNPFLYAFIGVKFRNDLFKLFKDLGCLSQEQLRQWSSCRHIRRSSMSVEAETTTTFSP

[9] = system: Salmonella typhimurium; assay: Genotoxicity in Salmonella typhimurium by Ames test in presence of S9 fractions; format: toxicity, organism-based, S9 Fraction; conditions: salmonella enterica subsp. enterica serovar typhimurium

C-X-C chemokine receptor type 6 (Homo sapiens), sequence (O00574 whole entry, looked up): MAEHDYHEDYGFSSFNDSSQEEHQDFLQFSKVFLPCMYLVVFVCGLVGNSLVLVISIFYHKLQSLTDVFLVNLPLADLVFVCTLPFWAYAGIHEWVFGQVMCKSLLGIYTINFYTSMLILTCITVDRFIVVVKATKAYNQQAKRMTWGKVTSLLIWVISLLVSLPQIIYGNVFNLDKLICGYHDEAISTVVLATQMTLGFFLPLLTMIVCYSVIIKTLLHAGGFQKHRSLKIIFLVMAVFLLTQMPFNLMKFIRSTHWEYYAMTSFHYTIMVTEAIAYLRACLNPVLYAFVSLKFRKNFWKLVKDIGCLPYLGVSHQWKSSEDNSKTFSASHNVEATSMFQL

COc1cc(N2CCN(C(=O)Cn3nc(C(F)(F)F)c(Cl)c3C)CC2)ccc1Cl
inhibition [1]: inactive | inhibition [2]: inactive | inhibition [3]: inactive | inhibition [4]: inactive | inhibition [5]: inactive | Activity [6]: inactive | Activity [7]: inactive | Activity [8]: inactive | Activity [9]: Non-toxic
